Results reported in US6914045B2, “Glycopeptide antibiotics” (Wyeth Holdings Corporation, priority 2001, dated 2005).
Converted amounts (≈) assume the structure as drawn. One block for each compound: values may come before it.

Experiments:
Assay in all cases: in vitro antibacterial evaluation, MIC by broth dilution
Format in all cases: cell-based
Enterococcus sp. = details: broth dilution, 18 hours at 35° C.
Procedure, shortened: (§1)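 Inoculum 5×10^5 CFU/mL; concentrations 64 to 0.06 μg/mL; MIC defined as lowest inhibitory level. Conducted by broth dilution under NCCLS guidelines.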

Staphylococcus sp. = details: broth dilution, 18 hours at 35° C.; for MIC Staphylococcus aureus (ATCC 29213): strain ATCC 29213; for MIC Staphylococcus aureus (GC 1131): strain GC 1131; for MIC Staphylococcus aureus (GC 3051): strain GC 3051; for MIC Staphylococcus aureus (GC 3053): strain GC 3053; for MIC Staphylococcus aureus (GC 4541): strain GC 4541; for MIC Staphylococcus aureus (GC 4542): strain GC 4542; for MIC Staphylococcus aureus-SMITH (GC 4543): strain GC 4543; for MIC Staphylococcus aureus (GC 4544): strain GC 4544; for MIC Staphylococcus aureus (GC 4545): strain GC 4545; for MIC Staphylococcus haemolyticus (GC 4546): strain GC 4546; for MIC Coagulase Negative Staphylococcus (GC 4547): strain GC 4547; for MIC Coagulase Negative Staphylococcus (GC 4548): strain GC 4548; for MIC Coagulase Negative Staphylococcus (GC 4549): strain GC 4549; for MIC Coagulase Negative Staphylococcus (GC 4551): strain GC 4551
Procedure, shortened: as §1

Streptococcus sp. = details: broth dilution, 18 hours at 35° C.
Procedure, shortened: as §1

Escherichia coli = details: 18 hours at 35° C.
[1] = inoculum 5×10^5 CFU/mL, strain ATCC 29212
[2] = inoculum 5×10^5 CFU/mL, strain GC 2242
[3] = inoculum 5×10^5 CFU/mL, strain GC 2243
[4] = inoculum 5×10^5 CFU/mL, strain GC 2691
[5] = inoculum 5×10^5 CFU/mL, strain GC 3059
[6] = inoculum 5×10^5 CFU/mL, strain GC 4552
[7] = inoculum 5×10^5 CFU/mL, strain GC 4553
[8] = inoculum 5×10^5 CFU/mL, strain GC 4554
[9] = inoculum 5×10^5 CFU/mL, strain GC 4556
[10] = inoculum 5×10^5 CFU/mL, strain GC 4557
[11] = inoculum 5×10^5 CFU/mL, strain GC 4558
[12] = inoculum 5×10^5 CFU/mL, strain GC 6189
[13] = inoculum 5×10^5 CFU/mL, strain ATCC 6301
[14] = inoculum 5×10^5 CFU/mL, strain GC 1894
[15] = inoculum 5×10^5 CFU/mL, strain GC 4563
[16] = inoculum 5×10^5 CFU/mL, strain GC 4564
[17] = inoculum 5×10^5 CFU/mL, strain GC 4565

MIC Enterococcus avium (GC 4558) (Enterococcus sp.): 2 µg/mL (≈ 1.35 µM)
MIC Enterococcus faecalis (ATCC 29212) (Enterococcus sp.): 4 µg/mL (≈ 2.7 µM)
MIC Enterococcus faecalis (GC 2242) (Enterococcus sp.): 4 µg/mL (≈ 2.7 µM)
MIC Enterococcus faecalis (GC 2691) (Enterococcus sp.): 4 µg/mL (≈ 2.7 µM)
MIC Enterococcus faecalis (GC 3059) (Enterococcus sp.): 4 µg/mL (≈ 2.7 µM)
MIC Enterococcus faecalis (GC 4552) (Enterococcus sp.): 4 µg/mL (≈ 2.7 µM)
MIC Enterococcus faecalis (GC 4553) (Enterococcus sp.): 2 µg/mL (≈ 1.35 µM)
MIC Enterococcus faecalis (GC 4554) (Enterococcus sp.): 4 µg/mL (≈ 2.7 µM)
MIC Enterococcus faecalis (GC 6189) (Enterococcus sp.): 4 µg/mL (≈ 2.7 µM)
MIC Enterococcus faecium (GC 2243) (Enterococcus sp.): 2 µg/mL (≈ 1.35 µM)
MIC Enterococcus faecium (GC 4556) (Enterococcus sp.): 4 µg/mL (≈ 2.7 µM)
MIC Enterococcus faecium (GC 4557) (Enterococcus sp.): 0.5 µg/mL (≈ 0.337 µM)
MIC Enterococcus faecalis (ATCC 29212) (Enterococcus sp.; [1]): 4 µg/mL (≈ 2.7 µM)
MIC Enterococcus faecalis (GC 2242) (Enterococcus sp.; [2]): 4 µg/mL (≈ 2.7 µM)
MIC Enterococcus faecium (GC 2243) (Enterococcus sp.; [3]): 2 µg/mL (≈ 1.35 µM)
MIC Enterococcus faecalis (GC 2691) (Enterococcus sp.; [4]): 4 µg/mL (≈ 2.7 µM)
MIC Enterococcus faecalis (GC 3059) (Enterococcus sp.; [5]): 4 µg/mL (≈ 2.7 µM)
MIC Enterococcus faecalis (GC 4552) (Enterococcus sp.; [6]): 4 µg/mL (≈ 2.7 µM)
MIC Enterococcus faecalis (GC 4553) (Enterococcus sp.; [7]): 2 µg/mL (≈ 1.35 µM)
MIC Enterococcus faecalis (GC 4554) (Enterococcus sp.; [8]): 4 µg/mL (≈ 2.7 µM)
MIC Enterococcus faecium (GC 4556) (Enterococcus sp.; [9]): 4 µg/mL (≈ 2.7 µM)
MIC Enterococcus faecium (GC 4557) (Enterococcus sp.; [10]): 0.5 µg/mL (≈ 0.337 µM)
MIC Enterococcus avium (GC 4558) (Enterococcus sp.; [11]): 2 µg/mL (≈ 1.35 µM)
MIC Enterococcus faecalis (GC 6189) (Enterococcus sp.; [12]): 4 µg/mL (≈ 2.7 µM)
MIC Staphylococcus aureus (ATCC 29213) (Staphylococcus sp.): 2 µg/mL (≈ 1.35 µM)
MIC Staphylococcus aureus (GC 1131) (Staphylococcus sp.): 4 µg/mL (≈ 2.7 µM)
MIC Staphylococcus aureus (GC 3051) (Staphylococcus sp.): 2 µg/mL (≈ 1.35 µM)
MIC Staphylococcus aureus (GC 3053) (Staphylococcus sp.): 4 µg/mL (≈ 2.7 µM)
MIC Staphylococcus aureus (GC 4541) (Staphylococcus sp.): 1 µg/mL (≈ 0.674 µM)
MIC Staphylococcus aureus (GC 4542) (Staphylococcus sp.): 4 µg/mL (≈ 2.7 µM)
MIC Staphylococcus aureus-SMITH (GC 4543) (Staphylococcus sp.): 2 µg/mL (≈ 1.35 µM)
MIC Staphylococcus aureus (GC 4544) (Staphylococcus sp.): 4 µg/mL (≈ 2.7 µM)
MIC Staphylococcus aureus (GC 4545) (Staphylococcus sp.): 2 µg/mL (≈ 1.35 µM)
MIC Coagulase Negative Staphylococcus (GC 4547) (Staphylococcus sp.): 2 µg/mL (≈ 1.35 µM)
MIC Coagulase Negative Staphylococcus (GC 4548) (Staphylococcus sp.): 1 µg/mL (≈ 0.674 µM)
MIC Coagulase Negative Staphylococcus (GC 4549) (Staphylococcus sp.): 1 µg/mL (≈ 0.674 µM)
MIC Coagulase Negative Staphylococcus (GC 4551) (Staphylococcus sp.): 2 µg/mL (≈ 1.35 µM)
MIC Streptococcus agalactiae (GC 4564) (Streptococcus sp.): <0.12 µg/mL
MIC Streptococcus pneumoniae (ATCC 6301) (Streptococcus sp.): 0.25 µg/mL (≈ 0.169 µM)
MIC Streptococcus pneumoniae (GC 1894) (Streptococcus sp.): <0.12 µg/mL
MIC Streptococcus pneumoniae (GC 4565) (Streptococcus sp.): 0.25 µg/mL (≈ 0.169 µM)
MIC Streptococcus pyogenes (GC 4563) (Streptococcus sp.): 0.25 µg/mL (≈ 0.169 µM)
MIC Streptococcus pneumoniae (ATCC 6301) (Streptococcus sp.; [13]): 0.25 µg/mL (≈ 0.169 µM)
MIC Streptococcus pneumoniae (GC 1894) (Streptococcus sp.; [14]): <0.12 µg/mL
MIC Streptococcus pyogenes (GC 4563) (Streptococcus sp.; [15]): 0.25 µg/mL (≈ 0.169 µM)
MIC Streptococcus agalactiae (GC 4564) (Streptococcus sp.; [16]): <0.12 µg/mL
MIC Streptococcus pneumoniae (GC 4565) (Streptococcus sp.; [17]): 0.25 µg/mL (≈ 0.169 µM)
MIC Escherichia coli (ATCC 25922) (Escherichia coli): 128 µg/mL (≈ 86.3 µM)
MIC Escherichia coli (GC 4559) (Escherichia coli): 64 µg/mL (≈ 43.1 µM)
MIC Escherichia coli (GC 4560) (Escherichia coli): 2 µg/mL (≈ 1.35 µM)
SMILES: CCCCN1CC(C(O)C2NC(=O)C(C(O)C3CNC(=N)N3)NC(=O)C(Cc3ccc(OC4OC(CO)C(OC5OC6COC7(OC6C(O)C5O)C5CC6CC(C5)CC7C6)C(O)C4O)cc3)NC(=O)C(C(C)c3ccccc3)NC(=O)CNC(=O)C(CO)NC2=O)N(C2OC(CO)C(O)C(O)C2O)C1=N (stereo not drawn) [Example 224]
MIC Staphylococcus haemolyticus (GC 4546) (Staphylococcus sp.): 1 µg/mL (≈ 0.674 µM)

MIC Enterococcus avium (GC 4558) (Enterococcus sp.): 4 µg/mL (≈ 2.67 µM)
MIC Enterococcus faecalis (ATCC 29212) (Enterococcus sp.): 8 µg/mL (≈ 5.35 µM)
MIC Enterococcus faecalis (GC 2242) (Enterococcus sp.): 8 µg/mL (≈ 5.35 µM)
MIC Enterococcus faecalis (GC 2691) (Enterococcus sp.): 16 µg/mL (≈ 10.7 µM)
MIC Enterococcus faecalis (GC 3059) (Enterococcus sp.): 16 µg/mL (≈ 10.7 µM)
MIC Enterococcus faecalis (GC 4552) (Enterococcus sp.): 8 µg/mL (≈ 5.35 µM)
MIC Enterococcus faecalis (GC 4553) (Enterococcus sp.): 4 µg/mL (≈ 2.67 µM)
MIC Enterococcus faecalis (GC 4554) (Enterococcus sp.): 16 µg/mL (≈ 10.7 µM)
MIC Enterococcus faecalis (GC 6189) (Enterococcus sp.): 16 µg/mL (≈ 10.7 µM)
MIC Enterococcus faecium (GC 2243) (Enterococcus sp.): 4 µg/mL (≈ 2.67 µM)
MIC Enterococcus faecium (GC 4556) (Enterococcus sp.): 8 µg/mL (≈ 5.35 µM)
MIC Enterococcus faecium (GC 4557) (Enterococcus sp.): 1 µg/mL (≈ 0.669 µM)
MIC Enterococcus faecalis (ATCC 29212) (Enterococcus sp.; [1]): 8 µg/mL (≈ 5.35 µM)
MIC Enterococcus faecalis (GC 2242) (Enterococcus sp.; [2]): 8 µg/mL (≈ 5.35 µM)
MIC Enterococcus faecium (GC 2243) (Enterococcus sp.; [3]): 4 µg/mL (≈ 2.67 µM)
MIC Enterococcus faecalis (GC 2691) (Enterococcus sp.; [4]): 16 µg/mL (≈ 10.7 µM)
MIC Enterococcus faecalis (GC 3059) (Enterococcus sp.; [5]): 16 µg/mL (≈ 10.7 µM)
MIC Enterococcus faecalis (GC 4552) (Enterococcus sp.; [6]): 8 µg/mL (≈ 5.35 µM)
MIC Enterococcus faecalis (GC 4553) (Enterococcus sp.; [7]): 4 µg/mL (≈ 2.67 µM)
MIC Enterococcus faecalis (GC 4554) (Enterococcus sp.; [8]): 16 µg/mL (≈ 10.7 µM)
MIC Enterococcus faecium (GC 4556) (Enterococcus sp.; [9]): 8 µg/mL (≈ 5.35 µM)
MIC Enterococcus faecium (GC 4557) (Enterococcus sp.; [10]): 1 µg/mL (≈ 0.669 µM)
MIC Enterococcus avium (GC 4558) (Enterococcus sp.; [11]): 4 µg/mL (≈ 2.67 µM)
MIC Enterococcus faecalis (GC 6189) (Enterococcus sp.; [12]): 16 µg/mL (≈ 10.7 µM)
MIC Staphylococcus aureus (ATCC 29213) (Staphylococcus sp.): 4 µg/mL (≈ 2.67 µM)
MIC Staphylococcus aureus (GC 1131) (Staphylococcus sp.): 8 µg/mL (≈ 5.35 µM)
MIC Staphylococcus aureus (GC 3051) (Staphylococcus sp.): 4 µg/mL (≈ 2.67 µM)
MIC Staphylococcus aureus (GC 3053) (Staphylococcus sp.): 8 µg/mL (≈ 5.35 µM)
MIC Staphylococcus aureus (GC 4541) (Staphylococcus sp.): 4 µg/mL (≈ 2.67 µM)
MIC Staphylococcus aureus (GC 4542) (Staphylococcus sp.): 8 µg/mL (≈ 5.35 µM)
MIC Staphylococcus aureus-SMITH (GC 4543) (Staphylococcus sp.): 4 µg/mL (≈ 2.67 µM)
MIC Staphylococcus aureus (GC 4544) (Staphylococcus sp.): 8 µg/mL (≈ 5.35 µM)
MIC Staphylococcus aureus (GC 4545) (Staphylococcus sp.): 4 µg/mL (≈ 2.67 µM)
MIC Coagulase Negative Staphylococcus (GC 4547) (Staphylococcus sp.): 4 µg/mL (≈ 2.67 µM)
MIC Coagulase Negative Staphylococcus (GC 4548) (Staphylococcus sp.): 2 µg/mL (≈ 1.34 µM)
MIC Coagulase Negative Staphylococcus (GC 4549) (Staphylococcus sp.): 2 µg/mL (≈ 1.34 µM)
MIC Coagulase Negative Staphylococcus (GC 4551) (Staphylococcus sp.): 4 µg/mL (≈ 2.67 µM)
MIC Streptococcus agalactiae (GC 4564) (Streptococcus sp.): 0.5 µg/mL (≈ 0.334 µM)
MIC Streptococcus pneumoniae (ATCC 6301) (Streptococcus sp.): 0.5 µg/mL (≈ 0.334 µM)
MIC Streptococcus pneumoniae (GC 1894) (Streptococcus sp.): <0.12 µg/mL
MIC Streptococcus pneumoniae (GC 4565) (Streptococcus sp.): 1 µg/mL (≈ 0.669 µM)
MIC Streptococcus pyogenes (GC 4563) (Streptococcus sp.): 0.5 µg/mL (≈ 0.334 µM)
MIC Streptococcus pneumoniae (ATCC 6301) (Streptococcus sp.; [13]): 0.5 µg/mL (≈ 0.334 µM)
MIC Streptococcus pneumoniae (GC 1894) (Streptococcus sp.; [14]): <0.12 µg/mL
MIC Streptococcus pyogenes (GC 4563) (Streptococcus sp.; [15]): 0.5 µg/mL (≈ 0.334 µM)
MIC Streptococcus agalactiae (GC 4564) (Streptococcus sp.; [16]): 0.5 µg/mL (≈ 0.334 µM)
MIC Streptococcus pneumoniae (GC 4565) (Streptococcus sp.; [17]): 1 µg/mL (≈ 0.669 µM)
MIC Escherichia coli (ATCC 25922) (Escherichia coli): 128 µg/mL (≈ 85.6 µM)
MIC Escherichia coli (GC 4559) (Escherichia coli): 128 µg/mL (≈ 85.6 µM)
MIC Escherichia coli (GC 4560) (Escherichia coli): 4 µg/mL (≈ 2.67 µM)
SMILES: CC(C)=CCN1CC(C(O)C2NC(=O)C(C(O)C3CNC(=N)N3)NC(=O)C(Cc3ccc(OC4OC(CO)C(OC5OC6COC7(OC6C(O)C5O)C5CC6CC(C5)CC7C6)C(O)C4O)cc3)NC(=O)C(C(C)c3ccccc3)NC(=O)CNC(=O)C(CO)NC2=O)N(C2OC(CO)C(O)C(O)C2O)C1=N (stereo not drawn) [Example 225]
MIC Staphylococcus haemolyticus (GC 4546) (Staphylococcus sp.): 4 µg/mL (≈ 2.67 µM)
